Assays:
[1] = tested on: parental 76N-tert cell line; test: S9.6 immunostaining (R-loops) in parental 76N-tert cells without ERα; assay type: cell-based, human; conditions: no ERα
Protocol: Generation of 76N-Tert-ESR1 cells: The 76N-Tert cell line, a human mammary epithelial cell line immortalized with expression of human telomerase reverse transcriptase (TERT) was provided (35). These cells were grown in F-media (250 mL DMEM (-pyruvate) (Gibco #11965-092), 250 mL Ham's F12 (Gibco #11765-054), 5% FBS, 250 ng/mL hydrocortisone (Sigma #H4001), 10 ng/mL human epidermal growth factor (Tonbo Biosciences #21-8356-U100), 8.6 ng/mL cholera toxin vibrio (Millipore Sigma #227035), 1 μg/mL human insulin solution, and 1× antibiotic-antimycotic and passaged every 2-3 days.
Immunostaining: Cells were grown in clearing media for 48 h and plated on 20 mm coverslip in 12 well plates with a density of 2×10^5 cells/well. After 24 h of growth, cells were treated with 10 nM E2, 1 or 5 μM BP3, and 1 or 5 μM PP with or without 1 μM fulvestrant. γH2AX/ERα: Cells were fixed in ice-cold methanol (100%) for 10 mins and quenched with 0.1 M Glycine for 15 mins. Cells were washed with 1×PBS, blocked in 2% BSA/PBS with 0.1% Triton-X 100 for 1 hr at room temperature (RT), incubated overnight with γH2AX antibody (Cell Signaling #9718 S) or ERα antibody (Santa Cruz Biotechnology #sc-8002) at 4° C. and 1 hour with secondary antibody. S9.6: Cells were fixed in ice-cold 100% methanol for 10 min at −20° C., permeabilized in 100% acetone for 1 min at RT, blocked for 30 min in saline sodium citrate pH 7 (SSC, 4×), 3% BSA, 0.1% Triton-X and incubated with S9.6 (Kerafast #ENH001) 2 hr at RT followed by 1 h with secondary antibody. If indicated, slides were treated with RNase H (NEB #M0297L) for 4 hr at 37° C. prior to incubation with primary antibody. Stained cells were mounted with Vectashield mounting medium containing DAPI (Vector Laboratories #H-1200). Slides were imaged at 60× (immersion oil) with Nikon A1 Spectral Confocal microscope. Analysis of γH2AX and S9.6 intensity per nucleus or foci per nucleus was calculated using Nikon analysis software, where DAPI was used as a mask for the nucleus.

Areg and Pgr = test: Acute oral exposure of ovariectomized mice: Areg and Pgr expression in mammary gland; assay type: in vivo, mouse; conditions: 4 days, E2 250, BP3 3,000, PP 10,000 μg/kg/day
Protocol: RT-qPCR: RNA from T47D cells, MCF-7 Cells or flash-frozen 4th mammary gland was isolated with TRIzol (Thermofisher Scientific #15596018) and Direct-zol RNA MiniPrep Plus (Zymo Research #R2072). cDNA was prepared with Protoscript II First Strand cDNA Synthesis Kit (New England Biolabs #E6560S) and qPCR for TFF1, progesterone receptor (PGR) and Amphiregulin (AREG) was performed on CFX96 Real-Time System thermocycler (Bio-Rad) using primers in Table 1.
(§1) Animal Treatment: Forty mature female mice (8 weeks old) BALB/c mice were purchased from Jackson Laboratory and housed in temperature-controlled facilities with a 12-hour alternating day/night light cycle and fed LabChow 5058 ad libitum. All procedures were in accordance with the national guidelines for the care and use of animals and approved by the University of Massachusetts Amherst's Institutional Animal Care and Use Committee.
(§2) The mice were ovariectomized before treatment. Briefly, each mouse was anaesthetized with a mix of isofluorance and oxygen. The flanks were shaved, sterilized with betadine and cleaned with alcohol. An incision was made to the skin on the right flank. The underlying muscle layer was nicked to reveal a small hole through which ovary was pulled out by grasping the periovarian fat. A Serrifin clamp was used to hold the ovary. After making sure the blood vessels were constricted to prevent […], the ovary was cut from the uterine horn. The periovarian fat was restored into the peritoneum. The peritoneum was closed with one or two stiches and the skin was closed with 9 mm wound clips. The procedure was repeated on the contralateral side. The mouse was monitored for a week post-procedure and wound clips were removed after 10 days. After 1 week of recovery, the mice began an acute oral treatment via pipette with one of three different compounds prepared in tocopherol-stripped corn oil for 4 days. Each mouse was administered 1 μL of oil per gram of body weight to deliver 250 μg/kg/d E2, 3000 μg/kg/d BP3 or 10000 μg/kg/d PP or vehicle control. […]

mammary epithelium = test: Acute oral exposure of ovariectomized mice: Ki67 proliferation of luminal epithelial cells; assay type: in vivo, mouse; conditions: 4 days, E2 250, BP3 3,000, PP 10,000 μg/kg/day
Text: as §1, §2
Immunostaining of mouse mammary gland: Freshly cut […] paraffin-embedded sections were deparaffinized/rehydrated with 100% xylenes 3 times for 5 min each, 2 times with 100% ethanol for 5 min each, 95% ethanol for 3 min and 70% ethanol for 3 min. […] Analysis of S9.6 intensity per nucleus or foci per nucleus were calculated using Nikon analysis software, where DAPI was used as a mask for the nucleus. […] Positive cells were counted using ImageJ software. 1200 cells were counted to determine percent Ki67 positive.

Row | SMILES | nuclear S9.6 staining [1] | transcriptional activation of ER-target genes (Areg and Pgr) (Areg and Pgr) | proliferation (Ki67) of mammary luminal epithelial cells (mammary epithelium)
1 | CCCOC(=O)c1ccc(O)cc1 [PP, propyl parahydroxybenzoate] | low nuclear S9.6 staining | neither BP3 nor PP elicited significant responses | neither BP3 nor PP elicited significant responses
2 | COc1ccc(C(=O)c2ccccc2)c(O)c1 [BP3, 2-Hydroxy-4-methoxybenzophenone] | low nuclear S9.6 staining | neither BP3 nor PP elicited significant responses | neither BP3 nor PP elicited significant responses
3 | C[C@]12CC[C@@H]3c4ccc(O)cc4CC[C@H]3[C@@H]1CC[C@@H]2O [E2, 17β-estradiol, reference compound] | low nuclear S9.6 staining | stimulated | stimulated

Source: patent publication US12590950B2, “Methods for predicting ER-mediated DNA damage” (UNIVERSITY OF MASSACHUSETTS, priority 2019, dated 2026)
